Where a name gives a salt, the structure may show the parent alone.

In assay [1] the target is T1, TBK1 (Homo sapiens, UniProt Q9UHD2).
T1 sequence (Q9UHD2 1-729): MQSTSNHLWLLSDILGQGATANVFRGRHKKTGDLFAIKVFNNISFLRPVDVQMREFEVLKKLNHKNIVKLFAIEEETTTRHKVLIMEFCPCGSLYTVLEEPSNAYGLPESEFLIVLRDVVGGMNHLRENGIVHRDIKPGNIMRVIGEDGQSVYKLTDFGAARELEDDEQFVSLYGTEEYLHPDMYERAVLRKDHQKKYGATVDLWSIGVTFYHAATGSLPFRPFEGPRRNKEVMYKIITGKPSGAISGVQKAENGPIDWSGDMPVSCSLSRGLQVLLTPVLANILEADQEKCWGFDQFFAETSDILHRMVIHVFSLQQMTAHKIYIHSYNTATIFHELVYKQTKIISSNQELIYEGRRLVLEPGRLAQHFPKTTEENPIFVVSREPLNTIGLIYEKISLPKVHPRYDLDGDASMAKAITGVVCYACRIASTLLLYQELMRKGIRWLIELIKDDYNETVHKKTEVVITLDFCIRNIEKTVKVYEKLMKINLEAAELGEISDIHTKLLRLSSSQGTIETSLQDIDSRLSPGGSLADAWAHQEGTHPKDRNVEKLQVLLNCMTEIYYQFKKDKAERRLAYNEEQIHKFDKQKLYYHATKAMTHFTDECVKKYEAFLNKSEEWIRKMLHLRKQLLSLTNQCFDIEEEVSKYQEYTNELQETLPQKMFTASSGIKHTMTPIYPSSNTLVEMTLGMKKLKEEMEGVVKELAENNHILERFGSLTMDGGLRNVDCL
Briefly: TBK biochemical assay. Conditions: 10 point 1:4 dose response, 30 uM top concentration, 90 min at 25° C., LabChip EZ Reader II; read-out: TBK1_IC50. A digest of the protocol:
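Substrate and product were separated and quantified by microfluidic mobility-shift read (LabChip). 10 uM staurosporine served as the full-inhibition control, and the reference compound was tested from 1 uM final.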

In assay [2] the target is T2, IKKε (Homo sapiens, UniProt Q14164).
T2 sequence (Q14164 1-716): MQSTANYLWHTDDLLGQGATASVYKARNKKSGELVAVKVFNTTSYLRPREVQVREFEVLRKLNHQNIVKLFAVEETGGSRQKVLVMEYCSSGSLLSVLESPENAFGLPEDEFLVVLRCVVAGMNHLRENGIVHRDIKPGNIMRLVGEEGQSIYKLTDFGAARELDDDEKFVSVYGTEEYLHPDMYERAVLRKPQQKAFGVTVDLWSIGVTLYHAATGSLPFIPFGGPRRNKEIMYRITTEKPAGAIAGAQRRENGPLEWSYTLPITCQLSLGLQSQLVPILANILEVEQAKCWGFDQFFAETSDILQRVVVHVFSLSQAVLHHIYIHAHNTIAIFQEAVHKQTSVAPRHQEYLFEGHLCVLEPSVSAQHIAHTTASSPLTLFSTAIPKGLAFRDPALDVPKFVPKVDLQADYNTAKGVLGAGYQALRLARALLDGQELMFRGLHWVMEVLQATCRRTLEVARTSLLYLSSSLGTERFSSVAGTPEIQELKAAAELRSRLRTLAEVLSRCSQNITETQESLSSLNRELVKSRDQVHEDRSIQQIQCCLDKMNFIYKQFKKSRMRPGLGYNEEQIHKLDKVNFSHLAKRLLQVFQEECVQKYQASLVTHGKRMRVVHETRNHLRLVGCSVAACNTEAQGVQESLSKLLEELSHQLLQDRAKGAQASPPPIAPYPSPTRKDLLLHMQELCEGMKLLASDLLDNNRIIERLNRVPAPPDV
Put plainly: IKKε biochemical assay. Conditions: 10 point 1:4 dose response, 30 uM top concentration, 90 min at 25° C., LabChip EZ Reader II; read-out: IKKε_IC50. A digest of the protocol: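 Compounds in 1% DMSO final were incubated with IKKε enzyme and substrate at 25° C. for 90 min, then stopped. Substrate and product peaks were resolved by LabChip EZ Reader II mobility-shift read-out. Staurosporine at 10 uM final served as the full-inhibition control.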

As to `COc1nc(Nc2nccc(-c3ccc(OC4CCOCC4)c(C#N)c3)n2)ccc1C(=O)N1CCN(CCO)CC1` [Example 15, 5-(2-{5-[4-(2-Hydroxy-ethyl)-piperazine-1-carbonyl]-6-methoxy-pyridin-2-ylamino}-pyrimidin-4-yl)-2-(tetrahydro-pyran-4-yloxy)-benzonitrile], the IC50 in assay [1] and in assay [2] was less than 100 nM throughout.

On to `COc1nc(Nc2nccc(-c3ccc(OC4CCOCC4)c(C#N)c3)n2)ccc1CNC1CCN(C)CC1` [Example 41, 5-[2-[(6-methoxy-5-[[(1-methylpiperidin-4-yl)amino]methyl]pyridin-2-yl)amino]pyrimidin-4-yl]-2-(oxan-4-yloxy)benzonitrile hydrochloride], for which the IC50 in assay [1] and in assay [2] was less than 100 nM in each case.

As to `COc1nc(Nc2nccc(-c3ccc(OC4CCN(C(=O)[C@H](C)O)CC4C)c(C#N)c3)n2)ccc1N1CCN(C2COC2)CC1` (stereo partly drawn) [Example 271, 2-[1-((S)-2-Hydroxy-propionyl)-3-methyl-piperidin-4-yloxy]-5-{2-[6-methoxy-5-(4-oxetan-3-yl-piperazin-1-yl)-pyridin-2-ylamino]-pyrimidin-4-yl}-benzonitrile], the IC50 in assay [1] and in assay [2] was less than 100 nM throughout.

Regarding `COc1nc(Nc2nccc(-c3ccc(OC4CCN(C(=O)[C@@H](O)C(C)C)CC4(F)F)c(C#N)c3)n2)ccc1C1CCN(C2COC2)CC1` (stereo partly drawn) [Example 236, 2-[3,3-Difluoro-1-((S)-2-hydroxy-3-methyl-butyryl)-piperidin-4-yloxy]-5-[2-(2-methoxy-1′-oxetan-3-yl-1′,2′,3′,4′,5′,6′-hexahydro-[3,4′]bipyridinyl-6-ylamino)-pyrimidin-4-yl]-benzonitrile], the IC50 in assay [1] and in assay [2] was less than 100 nM throughout.

As for `COc1nc(Nc2nccc(-c3ccc(O[C@H]4CCN(C(=O)[C@H](C)O)C[C@H]4F)c(C#N)c3)n2)ccc1C1CCN(C2COC2)CC1` [Example 191, 2-[(3R,4S)-3-Fluoro-1-((S)-2-hydroxy-propionyl)-piperidin-4-yloxy]-5-[2-(2-methoxy-1′-oxetan-3-yl-1′,2′,3′4′,5′,6′-hexahydro-[3,4′]bipyridinyl-6-ylamino)-pyrimidin-4-yl]-benzonitrile], the IC50 in assay [1] and in assay [2] was less than 100 nM in each case.

As for `COc1nc(Nc2nccc(-c3ccc(OC4CCN(C(=O)c5cnco5)CC4)c(C#N)c3)n2)ccc1N1CCN(C)CC1` [Example 92, 5-(2-[[6-methoxy-5-(4-methylpiperazin-1-yl)pyridin-2-yl]amino]pyrimidin-4-yl)-2-([1-[(1,3-oxazol-5-yl)carbonyl]piperidin-4-yl]oxy)benzonitrile], the IC50 in assay [1] and in assay [2] was less than 100 nM each time.

For `COc1nc(Nc2nccc(-c3ccc(OC4(C)CCN(C(=O)[C@H](C)O)CC4)c(C#N)c3)n2)ccc1N1CCN(C2COC2)CC1` [Example 268, 2-[1-((S)-2-Hydroxy-propionyl)-4-methyl-piperidin-4-yloxy]-5-{2-[6-methoxy-5-(4-oxetan-3-yl-piperazin-1-yl)-pyridin-2-ylamino]-pyrimidin-4-yl}-benzonitrile], the IC50 in assay [1] was less than 100 nM; in assay [2], 100 to 1000 nM.

In the case of `COc1nc(Nc2nccc(-c3ccc(OC4CCN(C(=O)[C@H](C)O)CC4(F)F)c(C#N)c3)n2)ccc1N1CCN(C)[C@@H](C)C1` (stereo partly drawn) [Example 105, 2-[3,3-Difluoro-1-((S)-2-hydroxy-propionyl)-piperidin-4-yloxy]-5-{2-[5-((S)-3,4-dimethyl-piperazin-1-yl)-6-methoxy-pyridin-2-ylamino]-pyrimidin-4-yl}-benzonitrile], the IC50 in assay [1] and in assay [2] was less than 100 nM throughout.

Regarding `COc1cc(C(=O)N(C)C)cnc1Nc1nccc(-c2ccc(NC3CCOCC3)c(C#N)c2)n1` [Example 60, 6-[(4-[3-cyano-4-[(oxan-4-yl)amino]phenyl]pyrimidin-2-yl)amino]-5-methoxy-N,N-dimethylpyridine-3-carboxamide], the IC50 in assay [1] and in assay [2] was greater than 5000 nM in each case.

Consider `COc1nc(Nc2nccc(-c3ccc(OC4CCN(C(=O)CO)CC4(F)F)c(C#N)c3)n2)ccc1C1CCN(C2COC2)CC1` (stereo not shown) [Example 154, 2-[3,3-Difluoro-1-(2-hydroxy-acetyl)-piperidin-4-yloxy]-5-[2-(2-methoxy-1′-oxetan-3-yl-1′,2′,3′,4′,5′,6′-hexahydro-[3,4′]bipyridinyl-6-ylamino)-pyrimidin-4-yl]-benzonitrile], for which the IC50 in assay [1] and in assay [2] was less than 100 nM throughout.

With `COc1nc(Nc2nccc(-c3ccc(OC4CCN(C(=O)CO)CC4)c(C#N)c3)n2)ccc1N1CCN(C)CC1` [Example 90, 2-[[1-(2-hydroxyacetyl)piperidin-4-yl]oxy]-5-(2-[[6-methoxy-5-(4-methylpiperazin-1-yl)pyridin-2-yl]amino]pyrimidin-4-yl)benzonitrile], the IC50 in assay [1] and in assay [2] was less than 100 nM in each case.

Regarding `COc1nc(Nc2nccc(-c3ccc(OC4CCOC4)c(C#N)c3)n2)ccc1N1CCN(C2COC2)CC1` (stereo not shown) [Example 162, 5-[2-([6-methoxy-5-[4-(oxetan-3-yl)piperazin-1-yl]pyridin-2-yl]amino)pyrimidin-4-yl]-2-(oxolan-3-yloxy)benzonitrile], the IC50 in assay [1] and in assay [2] was less than 100 nM each time.

Regarding `COc1cc(N2CCN(C3COC3)CC2)cnc1Nc1nccc(-c2ccc(OC3CCN(C(=O)[C@H](C)O)CC3(F)F)c(C#N)c2)n1` (stereo partly drawn) [Example 309, 2-([3,3-difluoro-1-[(2S)-2-hydroxypropanoyl]piperidin-4-yl]oxy)-5-[2-([3-methoxy-5-[4-(oxetan-3-yl)piperazin-1-yl]pyridin-2-yl]amino)pyrimidin-4-yl]benzonitrile], the IC50 in assay [1] and in assay [2] was 100 to 1000 nM throughout.

Regarding `CC(O)C(=O)N1CCC(Oc2ccc(-c3ccnc(Nc4ccc(C5CCN(C)CC5)cc4)n3)cc2C#N)C(F)(F)C1` (stereo not shown) [Example 149, 2-[[3,3-difluoro-1-(2-hydroxypropanoyl)piperidin-4-yl]oxy]-5-(2-[[4-(1-methylpiperidin-4-yl)phenyl]amino]pyrimidin-4-yl)benzonitrile], the IC50 in assay [1] and in assay [2] was less than 100 nM in each case.

For `COc1cc(Nc2nccc(-c3ccc(OC4CCN(C(=O)[C@H](C)O)CC4(F)F)c(C#N)c3)n2)ncc1N1CCN(C2COC2)CC1` (stereo partly drawn) [Example 322, 2-([33-difluoro-1-[(2S)-2-hydroxypropanoyl]piperidin-4-yl]oxy)-5-[2-([4-methoxy-5-[4-(oxetan-3-yl)piperazin-1-yl]pyridin-2-yl]amino)pyrimidin-4-yl]benzonitrile], the IC50 in assay [1] and in assay [2] was less than 100 nM throughout.

In the case of `COc1nc(Nc2nccc(-c3ccc(OC4CCOCC4)c(C#N)c3)n2)ccc1C(=O)N1C2CCCC1COC2` [Example 16, 5-(2-[[6-methoxy-5-([3-oxa-9-azabicyclo[3.3.1]nonan-9-yl]carbonyl)pyridin-2-yl]amino]pyrimidin-4-yl)-2-(oxan-4-yloxy)benzonitrile], the IC50 in assay [1] and in assay [2] was less than 100 nM each time.

For `COc1nc(Nc2nccc(-c3ccc(OC4CCN(C(=O)[C@H](O)C(C)C)CC4(F)F)c(C#N)c3)n2)ccc1C1CCN(C2COC2)CC1` (stereo partly drawn) [Example 238, 2-[3,3-Difluoro-1-((R)-2-hydroxy-3-methyl-butyryl)-piperidin-4-yloxy]-5-[2-(2-methoxy-1′-oxetan-3-yl-1′,2′,3′,4′,5′,6′-hexahydro-[3,4′]bipyridinyl-6-ylamino)-pyrimidin-4-yl]-benzonitrile], the IC50 in assay [1] and in assay [2] was 100 to 1000 nM each time.
